Type in all cases: in vivo, mouse
Experiment [1] has as its system retinal ganglion cells (RGCs). Put plainly: TUNEL staining after ON injury. The settings on record: one day after ON injury; intravitreal 3-MA (33.3 mM); compared to non-treated mice. The text has this:
Two mouse models of RGC death were utilized: optic nerve (ON) injury and N-methyl-D-aspartate (NMDA) retinal excitotoxicity. ON injury leads to RGC death as a result of primary damage to the axons, with its ensuing disruption of retrograde axonal transport (Libby et al., (2005) PLOS GENET 1:17-26) and is used as an RGC death model. In the ON injury model, mice were anesthetized and subjected to severe crush injury at 1-2 mm distance from the eyeball for 15 seconds using cross-action forceps taking special care not to interfere with the blood supply (Levkovitch-Verbin, (2004) EYE 18:1066-1074). […] Soon after injury, each group received an intravitreal injection (2 μl) with the respective compounds. In the NMDA retinal excitotoxicity model, NMDA (2 μl of a 0.1M stock; Sigma-Aldrich) was injected intravitreously in combination with ZVAD, Nec-1, or ZVAD plus Nec-1 and mice were separated into the aforementioned 4 groups. The dose of these compounds was selected based on previous studies (Karl et al., (2008) PROC NATL ACAD SCI USA 105:19508-19513; Knoferle et al., (2010) PROC NATL ACAD SCI USA 107:6064-6069; Nakazawa et al., (2006) J NEUROSCI 26:12633-12641; Rosenbaum et al., (2010) J NEUROSCI RES 88:1569-1576).
Intravitreal injections were performed as follows. Briefly, the tip of a 33 gauge needle (Hamilton, Reno, Nev.) was carefully inserted through the sclera into the intravitreal space to reduce intraocular pressure. Then, the needle was extracted, loaded with compounds and tangentially reinserted through the sclera into the intravitreal space, inducing a self-sealing wound tunnel. After injection, the absence of choroidal bleeding was confirmed. At specified times after injury, mice were sacrificed with an overdose of sodium pentobarbital, and eyes were enucleated.

Experiment [2] concerns retinal ganglion cells (RGCs). In words: Brn3b immunohistochemistry (viable RGCs) after ON injury. The conditions noted are these: seven days after ON injury; intravitreal 3-MA (33.3 mM); effect less than ZVAD plus Nec-1. The source says: Two mouse models of RGC death were utilized: optic nerve (ON) injury and N-methyl-D-aspartate (NMDA) retinal excitotoxicity. ON injury leads to RGC death as a result of primary damage to the axons, with its ensuing disruption of retrograde axonal transport (Libby et al., (2005) PLOS GENET 1:17-26) and is used as an RGC death model. In the ON injury model, mice were anesthetized and subjected to severe crush injury at 1-2 mm distance from the eyeball for 15 seconds using cross-action forceps taking special care not to interfere with the blood supply (Levkovitch-Verbin, (2004) EYE 18:1066-1074). Injured mice were randomly divided into 4 groups for treatment: vehicle group (0.5% DMSO and 0.8% cyclodextrin in PBS, n=6), ZVAD group (300 n=6), Nec-1 group (4 mM, n=6), and ZVAD plus Nec-1 group (n=6). Soon after injury, each group received an intravitreal injection (2 μl) with the respective compounds. In the NMDA retinal excitotoxicity model, NMDA (2 μl of a 0.1M stock; Sigma-Aldrich) was injected intravitreously in combination with ZVAD, Nec-1, or ZVAD plus Nec-1 and mice were separated into the aforementioned 4 groups. […]

Experiment [3] concerns retinal ganglion cells (RGCs). In words: IPL thickness and GCL with IPL thickness after ON injury (immunohistochemistry, SD-OCT). The conditions noted are these: seven days after ON injury; intravitreal 3-MA (33.3 mM); effect less than ZVAD plus Nec-1. On the procedure: An anti-TNF-α neutralizing antibody (0.1 mg/ml) or a control antibody was injected into the vitreous of mice that underwent ON injury. One week following injection, the number of RGCs were measured. In addition, inner plexiform layer (IPL) thickness (a location of RGC axons) was also assessed. Specifically, eyes were enucleated and RGC loss was quantified from histological sections of mouse retina. Only transverse sections involving the optic disc were used for analysis and the fields corresponding to approximately 400 μm of both sides of retina extending from the ON head (2 points/section×3 sections per eye, n=6) were examined with an optical microscope (×40 objectives). IPL thickness was measured with OpenLab software (Open Lab, Florence, Italy) (2 points/section×3 sections per eye, n=6). The ratio of IPL thickness was calculated as a percentage of IPL thickness in the normal mouse eyes (n=6).
Inner plexiform layer (IPL) thickness and ganglion cell layer (GCL) with IPL thickness (location of RGC cell bodies and axons) were measured using immunohistochemistry and a Spectral Domain Optical Coherence Tomography (SD-OCT) system (Bioptigen Inc., Durham, N.C.). […] The thickness of GCL+IPL was assessed at 500 μm, 400 μm, 300 μm distance from the ON head (nasally and temporally) as well as at 200 μm, 400 μm above and below the ON head.

In experiment [4] the test system is ROS. Put plainly: Protein carbonyl contents in retina after ON injury (ELISA). The settings on record: one day after ON injury; intravitreal 3-MA; compared with untreated control. How it is done:
It has been reported that RIP kinases control ROS generation during programmed necrosis (Cho et. al., (2009) CELL 137:1112-1123, Zhang et al., (2009) SCIENCE 325:332-336)). To investigate whether ROS play a roll in oxidative retinal damage after ON injury, protein level of carbonyl contents was analyzed using ELISA using the OxiSelect™ Protein Carbonyl ELISA Kit (Cell Biolabs, San Diego, Calif.).
To investigate the role of autophagy in RGC death after ON injury, we examined the effect of 3-methyladenine (3-MA) on RGCs death after ON injury. 3-MA inhibits autophagosome formation (Seglen and Gordon, (1982) PROC NATL ACAD SCI USA 79:1889-1892)). One day after ON injury, TUNEL assay was performed. […] In addition, the number of Brn3b positive cells and IPL thickness were also analyzed. […] To investigate whether ROS play a role in oxidative retinal damage after ON injury, protein level of carbonyl contents was analyzed using an ELISA kit (Cell Biolabs, San Diego, Calif.) according to the manufacturer's instructions. One day after ON injury, carbonyl contents decreased in the 3-MA treated group compared with untreated control (FIG. 10F).
On the technique in general: An ELISA detects its analyte on a solid surface through an enzyme-linked reagent.

Take `Cn1cnc(N)c2ncnc1-2` [3-MA, 3-methyladenine]: the “number of TUNEL positive cells” value in experiment [1] is “small but statistically significant decline”. In addition, the “reduction of Brn3b positive cells” value in experiment [2] is recorded as “significantly prevented the reduction”. For the same molecule, in experiment [3], the “reduction of IPL thickness ratio” value is reported as “significantly prevented the reduction”. Besides, the “carbonyl contents (protein level, ELISA)” value in experiment [4] is “decreased”.

(Values after US10617735B2, “Methods and compositions for preserving retinal ganglion cells” (Massachusetts Eye and Ear Infirmary, priority 2010, dated 2020).)
